Results as given in patent publication US12180193B2, “Accelerating fibrosarcoma protein degrading compounds and associated methods of use” (Arvinas Operations, Inc., priority 2020, dated 2024).

How the values were obtained:
[1] = target: T1, BRAF V600E (Homo sapiens, UniProt P15056, V600E); assay: Cellular assay of target protein degradation, T-Rex 293 cells stably transfected with HA-BRAF_V600E (HA immunofluorescence, high content imaging); assay type: cell-based; conditions: T-Rex 293 HA-BRAF V600E; for DC50: half maximal degradation, read-out: BRaf V600E DC50; for Dmax: maximum degradation observed
T1 construct: expressed in transfected cells
T1 sequence (P15056 whole entry V600E): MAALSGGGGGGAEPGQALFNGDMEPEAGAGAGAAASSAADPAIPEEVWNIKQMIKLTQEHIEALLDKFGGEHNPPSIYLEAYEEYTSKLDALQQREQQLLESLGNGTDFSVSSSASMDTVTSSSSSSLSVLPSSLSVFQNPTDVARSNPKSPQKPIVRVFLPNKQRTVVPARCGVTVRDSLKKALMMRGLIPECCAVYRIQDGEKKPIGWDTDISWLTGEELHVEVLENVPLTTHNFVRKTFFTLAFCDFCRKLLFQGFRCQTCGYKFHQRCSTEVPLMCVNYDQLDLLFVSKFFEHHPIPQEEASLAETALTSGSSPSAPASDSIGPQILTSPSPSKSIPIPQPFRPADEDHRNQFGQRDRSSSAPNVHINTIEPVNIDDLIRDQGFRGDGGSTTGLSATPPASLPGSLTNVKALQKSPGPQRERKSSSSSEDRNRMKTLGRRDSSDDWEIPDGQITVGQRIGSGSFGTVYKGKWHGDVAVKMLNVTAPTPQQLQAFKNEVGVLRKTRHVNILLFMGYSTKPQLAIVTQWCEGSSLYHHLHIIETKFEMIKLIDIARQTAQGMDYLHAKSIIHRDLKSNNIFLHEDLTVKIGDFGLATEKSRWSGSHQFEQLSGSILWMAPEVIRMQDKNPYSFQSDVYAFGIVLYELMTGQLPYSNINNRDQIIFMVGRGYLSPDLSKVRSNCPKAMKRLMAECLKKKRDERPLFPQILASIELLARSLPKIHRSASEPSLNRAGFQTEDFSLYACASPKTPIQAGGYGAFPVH
Experimental: Protocol for a cellular assay of target protein degradation (T-Rex 293 cells). T-Rex 293 cells were purchased from Invitrogen (#R71007), and stably transfected with a pcDNA4/TO_HA-BRAF_V600E construct, using 400 ug Zeocin for selection. V600e cells are plated in Dulbecco's Modified Eagle Medium (DMEM; Gibco #11965118) containing 10% fetal bovine serum (FBS; Gibco #16000044) and 1 ng/mL doxycycline (Selleckchem #4163) at a density of 5,000 cells/well in 50 μl on poly-D-lysine (PDL) coated, black clear bottom 96-well plates (Corning #354640) and incubated for 24 hours at 37° C. with 5% C02. The following day 50 ul of tested compound was added at 2x concentration in DMEM with a final concentration ranging from 1 μM to 0.1 nM in 0.1% dimethylsulfoxide (DMSO), and incubated for 24 hours at 37° C. with 5% CO2. At the end of the experimental treatment, the media was flicked off and cells washed once with phosphate-buffered saline (PBS)++ (PBS with CaCl and MgCl) and gently replacing with 200 μl PBS++ per well. The PBS++ was removed and 50 uL 4% paraformaldehyde (PFA; EMS #15710) in PBS++ was added, and incubate at room temperature for 15 minutes. Cells were washed once with PBS++ and 50 uL 0.1% Triton X-100 (Fisher #BP151-500) in PBS++ was added. Plate was incubate for 5 minutes at room temperature. Cells were was once with PBS++. Cells were blocked with 100 uL Licor blocking buffer (Licor #927-50000) for 1 hour at room temperature. Next, 50 uL of HA antibody (CST #3724) at 1:1000 in Licor blocking buffer was added, and the plate incubate overnight at 4° C. The plates were parafilmed to prevent evaporation. Plate was washed three times with 200 uL PBS++. Fifty microliters of HCS secondary antibody solution [1:1000 Hoechst (Invitrogen #H3570), 1:1000 phalloidin (Invitrogen #A22287) and 1:5000 Alexa fluor (Invitrogen #A11008)] was added and incubated for 1 hour. Plate was wash three times with 200 uL PBS++, and imaged on a high content reader (ImageXpress Micro XLS, Molecular Devices).
(§1) The concentration of exemplary compound that leads to half maximal degradation (DC50) as well as the maximum degradation observed (Dmax, conventionally expressed as a percentage of control), which are below in Table 2 for the exemplary compounds of Table 1.

[2] = target: T2, BRAF G466V (Homo sapiens, UniProt P15056, G466V); assay: Cellular assay of target protein degradation, T-Rex 293 cells stably transfected with HA-BRAF G466V (HA immunofluorescence, high content imaging); assay type: cell-based; conditions: T-Rex 293 HA-BRAF G466V; for DC50: half maximal degradation, read-out: BRaf G466V DC50; for Dmax: maximum degradation observed
T2 construct: expressed in transfected cells
T2 sequence (P15056 whole entry G466V): as the sequence (P15056 whole entry V600E) above, with G466V, E600V counted along it
Experimental: Protocol for a cellular assay of target protein degradation (T-Rex 293 cells). T-Rex 293 cells were purchased from Invitrogen (#R71007), and stably transfected with a pcDNA4/TO_HA-BRAF G466V construct, using 400 ug Zeocin for selection. G466V cells are plated in Dulbecco's Modified Eagle Medium (DMEM; Gibco #11965118) containing 10% fetal bovine serum (FBS; Gibco #16000044) and 0.75 ng/mL doxycycline (Selleckchem #4163) at a density of 5,000 cells/well in 50 μl on poly-D-lysine (PDL) coated, black clear bottom 96-well plates (Corning #354640) and incubated for 24 hours at 37° C. with 5% CO2. The following day 50 ul of tested compound was added at 2x concentration in DMEM with a final concentration ranging from 30 nM to 3 pM in 0.1% dimethylsulfoxide (DMSO), and incubated for 24 hours at 37° C. with 5% CO2. At the end of the experimental treatment, the media was flicked off and cells washed once with phosphate-buffered saline (PBS)++ (PBS with CaCl and MgCl) and gently replacing with 200 μl PBS++ per well. The PBS++ was removed and 50 uL 4% paraformaldehyde (PFA; EMS #15710) in PBS++ was added, and incubate at room temperature for 15 minutes. Cells were washed once with PBS++ and 50 uL 0.1% Triton X-100 (Fisher #BP151-500) in PBS++ was added. Plate was incubate for 5 minutes at room temperature. Cells were was once with PBS++. Cells were blocked with 100 uL Licor blocking buffer (Licor #927-50000) for 1 hour at room temperature. Next, 50 uL of HA antibody (CST #3724) at 1:1000 in Licor blocking buffer was added, and the plate incubate overnight at 4° C. The plates were parafilmed to prevent evaporation. Plate was washed three times with 200 uL PBS++. Fifty microliters of HCS secondary antibody solution [1:1000 Hoechst (Invitrogen #H3570), 1:1000 phalloidin (Invitrogen #A22287) and 1:5000 Alexa fluor (Invitrogen #A11008)] was added and incubated for 1 hour. Plate was wash three times with 200 uL PBS++, and imaged on a high content reader (ImageXpress Micro XLS, Molecular Devices).
as §1

Row | DC50 [1] [nM] | DC50 [2] [nM] | Dmax [2] [%] | Dmax [1] [%] | SMILES
1 | > 500 | 1 to 10 | > 70 |  | O=C1CC[C@@H](N2Cc3cc(CCCCN4CC5(C4)CN(c4ccc(-c6cnc7[nH]cc(C(=O)c8c(F)ccc(NS(=O)(=O)N9CC[C@@H](F)C9)c8F)c7c6)cc4)C5)ccc3C2=O)C(=O)N1 [Compound 63, (3R)-N-[3-(5-{4-[6-(4-{2-[(3R)-2,6-dioxopiperidin-3-yl]-1-oxo-2,3-dihydro-1H-isoindol-5-yl}butyl)-2,6-diazaspiro[3.3]heptan-2-yl]phenyl}-1H-pyrrolo[2,3-b]pyridine-3-carbonyl)-2,4-difluorophenyl]-3-fluoropyrrolidine-1-sulfonamide]
2 | 5 to 50 | 1 to 10 | > 70 | 35 to 70 | O=C1CCC(N2Cc3cc(N4CCC(CCCN5CCN(c6ccc(-c7cnc8[nH]cc(C(=O)c9c(F)ccc(NS(=O)(=O)N%10CC[C@@H](F)C%10)c9F)c8c7)cc6)CC5)CC4)ccc3C2=O)C(=O)N1 (stereo partly drawn) [Compound 137, (3R)-N-[3-(5-{4-[4-(3-{1-[2-(2,6-dioxopiperidin-3-yl)-1-oxo-2,3-dihydro-1H-isoindol-5-yl]piperidin-4-yl}propyl)piperazin-1-yl]phenyl}-1H-pyrrolo[2,3-b]pyridine-3-carbonyl)-2,4-difluorophenyl]-3-fluoropyrrolidine-1-sulfonamide]
3 | 5 to 50 | 1 to 10 | 35 to 70 | < 35 | O=C1CC[C@@H](NC(=O)c2ccc(N3CC4(CN(CC5CCN(c6ccc(-c7cnc8[nH]cc(C(=O)c9c(F)ccc(NS(=O)(=O)N%10CC[C@@H](F)C%10)c9F)c8c7)cc6)CC5)C4)C3)cc2F)C(=O)N1 [Compound 37, 4-(6-{[1-(4-{3-[2,6-difluoro-3-({[(3R)-3-fluoropyrrolidin-1-yl]sulfonyl}amino)benzoyl]-1H-pyrrolo[2,3-b]pyridin-5-yl}phenyl)piperidin-4-yl]methyl}-2,6-diazaspiro[3.3]heptan-2-yl)-N-[(3R)-2,6-dioxopiperidin-3-yl]-2-fluorobenzamide]
4 | 5 to 50 | 1 to 10 | 35 to 70 | 35 to 70 | O=C1CC[C@H](N2Cc3cc(C4CCN(CC5CCN(c6ccc(-c7cnc8[nH]cc(C(=O)c9c(F)ccc(NS(=O)(=O)N%10CC[C@@H](O)C%10)c9F)c8c7)cc6)CC5)CC4)ccc3C2=O)C(=O)N1 [Compound 278, (3R)-N-{3-[5-(4-{4-[(4-{2-[(3S)-2,6-dioxopiperidin-3-yl]-1-oxo-2,3-dihydro-1H-isoindol-5-yl}piperidin-1-yl)methyl]piperidin-1-yl}phenyl)-1H-pyrrolo [2,3-b]pyridine-3-carbonyl]-2,4-difluorophenyl}-3-hydroxypyrrolidine-1-sulfonamide]
5 | < 5 | < 1 | 35 to 70 | 35 to 70 | CCc1c(NS(=O)(=O)N2CC[C@@H](F)C2)ccc(F)c1C(=O)c1c[nH]c2ncc(-c3ccc(N4CCC(CN5CCC(c6ccc7c(c6)CN([C@H]6CCC(=O)NC6=O)C7=O)CC5)CC4)cc3)cc12 [Compound 203, (3R)—N-{3-[5-(4-{4-[(4-{2-[(3S)-2,6-dioxopiperidin-3-yl]-1-oxo-2,3-dihydro-1H-isoindol-5-yl}piperidin-1-yl)methyl]piperidin-1-yl}phenyl)-1H-pyrrolo[2,3-b]pyridine-3-carbonyl]-2-ethyl-4-fluorophenyl}-3-fluoropyrrolidine-1-sulfonamide]
6 | 5 to 50 | 1 to 10 | > 70 | 35 to 70 | COc1cc(N2CCC(CN3CC4(C3)CN(c3ccc(-c5cnc6[nH]cc(C(=O)c7c(F)ccc(NS(=O)(=O)N8CC[C@@H](F)C8)c7F)c6c5)cc3)C4)CC2)ccc1C(=O)N[C@H]1CCC(=O)NC1=O [Compound 352, 4-(4-{[6-(4-{3-[2,6-difluoro-3-({[(3R)-3-fluoropyrrolidin-1-yl]sulfonyl}amino)benzoyl]-1H-pyrrolo[2,3-b]pyridin-5-yl}phenyl)-2,6-diazaspiro[3.3]heptan-2-yl]methyl}piperidin-1-yl)-N-[(3S)-2,6-dioxopiperidin-3-yl]-2-methoxybenzamide]
7 | < 5 | < 1 | 35 to 70 | 35 to 70 | O=C1CC[C@@H](N2Cc3cc(N4CCC(CN5CCC6(CCN(c7ccc(-c8cnc9[nH]cc(C(=O)c%10c(F)ccc(NS(=O)(=O)N%11CC[C@@H](F)C%11)c%10F)c9c8)cc7F)CC6)C5)CC4)ccc3C2=O)C(=O)N1 [Compound 259, (3R)-N-{3-[5-(4-{2-[(1-{2-[(3R)-2,6-dioxopiperidin-3-yl]-1-oxo-2,3-dihydro-1H-isoindol-5-yl}piperidin-4-yl)methyl]-2,8-diazaspiro[4.5]decan-8-yl}-3-fluorophenyl)-1H-pyrrolo[2,3-b]pyridine-3-carbonyl]-2,4-difluorophenyl}-3-fluoropyrrolidine-1-sulfonamide]
8 | 5 to 50 | 1 to 10 | 35 to 70 | 35 to 70 | O=C1CCC(N2Cc3cc(N4CCN(CC5CN(c6ccc(-c7cnc8[nH]cc(C(=O)c9c(F)ccc(NS(=O)(=O)N%10CC[C@@H](F)C%10)c9F)c8c7)cc6F)C5)CC4)ccc3C2=O)C(=O)N1 (stereo partly drawn) [Compound 131, (3R)-N-[3-(5-{4-[3-({4-[2-(2,6-dioxopiperidin-3-yl)-1-oxo-2,3-dihydro-1H-isoindol-5-yl]piperazin-1-yl}methyl)azetidin-1-yl]-3-fluorophenyl}-1H-pyrrolo[2,3-b]pyridine-3-carbonyl)-2,4-difluorophenyl]-3-fluoropyrrolidine-1-sulfonamide]
9 | 5 to 50 | 10 to 30 | > 70 | < 35 | C[C@@H]1CC[C@@H](C)N1S(=O)(=O)Nc1ccc(F)c(C(=O)c2c[nH]c3ncc(-c4ccc(N5CCC(CN6CCC(c7ccc8c(c7)CN([C@H]7CCC(=O)NC7=O)C8=O)CC6)CC5)cc4)cc23)c1F [Compound 277, (2R,5R)-N-{3-[5-(4-{4-[(4-{2-[(3S)-2,6-dioxopiperidin-3-yl]-1-oxo-2,3-dihydro-1H-isoindol-5-yl}piperidin-1-yl)methyl]piperidin-1-yl}phenyl)-1H-pyrrolo [2,3-b]pyridine-3-carbonyl]-2,4-difluorophenyl}-2,5-dimethylpyrrolidine-1-sulfonamide]
10 | 50 to 500 | 1 to 10 | > 70 | 35 to 70 | O=C1CCC(N2Cc3cc(C4CCN(CCc5ccc(-c6cnc7[nH]cc(C(=O)c8c(F)ccc(NS(=O)(=O)N9CC[C@@H](F)C9)c8F)c7c6)cc5)[C@@H](CO)C4)ccc3C2=O)C(=O)N1 (stereo partly drawn) [Compound 150, (3R)-N-{3-[5-(4-{2-[(2R)-4-[2-(2,6-dioxopiperidin-3-yl)-1-oxo-2,3-dihydro-1H-isoindol-5-yl]-2-(hydroxymethyl)piperidin-1-yl]ethyl}phenyl)-1H-pyrrolo[2,3-b]pyridine-3-carbonyl]-2,4-difluorophenyl}-3-fluoropyrrolidine-1-sulfonamide]
